The values that follow come from a melting point compilation (Tetko et al.; mined from patent text by program, amines drawn as free bases though some values may be those of a salt).

The melting point is the temperature, or range, at which the solid turns liquid. Compound `CCOC(=O)C1Cc2cc(OC)c(OC)cc2C(c2ccccc2)N1C(=O)CNC(=O)OC(C)(C)C` (stereo unspecified) came in with a melting point of 166 to 167 °C.

In the case of `COc1ccccc1CCc1c(CO)ccc(OC)c1OC`, the melting point fell in the range of 108 to 109 °C.

Take `CCCCCCCCCCCCc1c2c(=O)c3cc(-c4cccs4)ccc3c2c(CCCCCCCCCCCC)c2c(=O)c3cc(-c4cccs4)ccc3c12`: the melting point was 205 to 206 °C.

For `Cc1ccc(S(=O)(=O)NCCc2cccc(OCC(=O)Nc3nnn[nH]3)c2)cc1`, the melting point lay within 199 to 201 °C.

For the compound `CC[C@H](C)[C@H](NC(C)=O)C(=O)N[C@H](C(=O)N[C@@H](CC1CCCCC1)[C@@H](O)[C@@H](O)CC(C)C)[C@@H](C)CC`, the melting point lay within 247 to 248 °C.

Turning to `Cc1ccc(Oc2ccc(-n3cncn3)cc2)c(O)c1`, the melting point fell in the range of 107 to 109 °C.

Regarding `Cc1cc(C(O)(c2ccc3c(cnn3-c3ccc(F)cc3)c2)C(F)(F)F)cn(C)c1=O` (stereo unspecified), the melting point is greater than 200 °C.

As to `CC1(C)CCC(C)(C)c2cc(C(COc3ccc(C(=O)O)c(O)c3)=NO)ccc21`, the melting point was 220 to 222 °C.

On to `CCC(=O)N1N=C(c2ccc([N+](=O)[O-])c(C)c2)c2cc(Cl)ccc2C=C1C`, for which the melting point is 134 to 138 °C.

`COc1ccc2c3c(c(=O)oc2c1)CN(Cc1ccccn1)CC3`: the melting point was 140 to 142 °C.

With `CC(C)c1nc2c(nc1C(C)C)C(=O)CCC2`, the melting point lay in the range of 92 to 94 °C.

On to `Cc1nc2c(cnn2-c2c(Cl)cc(C(F)(F)F)cc2Cl)c(=O)n1C`, for which the melting point was 195 °C.

For the compound `COc1ccc(N(N)c2nc(OCc3cccc(OC)c3)ncc2F)cc1`, the melting point was 96 to 100 °C.

`COc1ccc2c(=O)c3[nH]cc(C(=O)O)c(=O)c3oc2c1` had a melting point of 318 to 319 °C.

Turning to `O=C(O)c1cnn(CC(F)(F)F)c1`, the melting point lay within 160 to 162 °C.

In turn, `CC(C)(C)CNC(=O)c1ccc(Br)c(C(=O)O)c1` came in with a melting point of 176 to 179 °C.

For the compound `CCc1cc(C)cc(C)c1C1C(=O)N2CCN(OC)CCN2C1=O`, the melting point lay within 213 to 215 °C.

`Cc1ccc(Nc2nc(-c3ccc(OC(F)(F)F)cc3)cs2)nc1` displayed a melting point of 205 to 207 °C.

For the compound `Cc1csc(-c2nc(COc3ccc(CCCCn4ccnc4)cc3)co2)c1`, the melting point was 77 to 78 °C.

The compound `Cc1cc(CCCCCSc2ccc(C3=NCCO3)cc2)on1` registered a melting point of 89 to 91 °C.

`FC(F)(F)c1cccc(CN2C(=NCCCn3ccnc3)c3cccc4cccc2c34)c1` came in with a melting point of 108 to 109 °C.

The compound `CCOC(=O)C1=C[C@H](c2ccc(C)cc2)[C@H](CO[Si](C)(C)C(C)(C)C)C(=O)O1` yielded a melting point of 60 to 61 °C.

In the case of `CCCNC(=O)C1=CCC2C3CCc4cc(O)ccc4C3CCC12C` (stereo unspecified), the melting point was in the range of 168 to 169 °C.

For the compound `CCOC(=O)C1=C(c2ccc(OC)cc2)Nc2n[nH]cc2C1c1ccccc1Cl` (stereo unspecified), the melting point was 211 °C.

The compound `COc1ccc(C=CC(=O)Nc2cnc3c(C)cc(C)cc3c2-c2ccccc2Cl)c(OC)c1OC` had a melting point of 200 to 201 °C.

`O=Cc1ccc(N2C[C@H](CN3C(=O)c4ccccc4C3=O)OC2=O)cc1F` registered a melting point of 167 to 169 °C.

Consider `O=C(N[C@H](CO)c1ccccc1)c1[nH]c2ccc(Cl)cc2c1S(=O)(=O)c1ccccc1`, for which the melting point fell in the range of 155 to 160 °C.

With `CCC(=O)Nc1cccc(-c2ccc(Cl)nn2)c1`, the melting point was 184 to 187 °C.

Turning to `CCn1cc(CC(=O)O)c(OCCCc2ccc(Cc3ccccn3)cc2OC(C)C)n1`, the melting point is 97 to 98 °C.

The compound `Cc1cnc(C(N)=O)cn1` registered a melting point of 204 to 206 °C.

Consider `CCCCCCCCCCCCCCCCCC(=O)Oc1ccc2c(c1)C(=O)c1ccc(OC(=O)CCCCCCCCCCCCCCCCC)cc1C2=O`, for which the melting point fell in the range of 129 to 132 °C.

Compound `Cc1ccc(S(=O)(=O)OCC2COc3cc(F)c([N+](=O)[O-])cc3O2)cc1` (stereo unspecified) returned a melting point of 106 to 107 °C.

The compound `CCNC(=O)c1c(F)cccc1S(=O)C(C)(C)C` (stereo unspecified) displayed a melting point of 114 to 116 °C.

For the compound `CC(=O)c1cn(Cc2ccccc2)c(=O)n(Cc2ccc(F)cc2)c1=O`, the melting point is 106 to 108 °C.

`Cc1cc(OC(F)F)nc(NC(=O)Oc2ccccc2)n1` returned a melting point of 56 to 58 °C.

For `COc1ccc(-c2cnn3c(N)c(-c4cccc(Cl)c4)c(CF)nc23)cc1OC`, the melting point was in the range of 228 to 230 °C.

`O=C(NC(=O)c1c(F)cccc1F)Nc1ccc(C(F)(F)F)cn1` showed a melting point of 215 to 220 °C.

Take `CC(C)C[C@H](NC(=O)O[C@H]1CCOC1)C(=O)O`: the melting point was in the range of 94.9 to 96 °C.

Consider `CCCOc1ccc(-c2scc(-c3ccccc3Cl)c2CC(=O)N=C(N)N)cc1`, for which the melting point is 98 to 99 °C.

Regarding `COC(=O)Cc1cc(-c2ccccc2)ccc1OCc1ccc(OCc2nc(-c3ccccc3)oc2C)cc1`, the melting point lay in the range of 111 to 112 °C.

Turning to `Cn1nc(C(F)(F)F)cc1N`, the melting point was 100 to 101 °C.

`O=c1[nH]ncc2[nH]c(-c3ccc(OC(F)F)c(OC4CC4)c3)c(-c3cn[nH]c3)c12`: the melting point fell in the range of 294 to 297 °C.

In turn, `NNC(=O)c1ccccc1-c1ccc(N)cc1` yielded a melting point of 135 to 137 °C.

In turn, `Cc1cc(NCc2ccc(-c3ccccc3C#N)cc2)n2nccc2n1` showed a melting point of 221 to 223 °C.

For `CC(CCC(=O)NCCS(=O)(=O)O)C1CCC2C3C(O)CC4CC(NC(=O)CNC(=O)OC(C)(C)C)CCC4(C)C3CC(O)C12C` (stereo unspecified), the melting point is 150 to 155 °C.

In the case of `CCN(CCOC)C(=O)c1cc(-c2ccccc2)c(=O)n2c1-c1ccccc1C2`, the melting point lay within 139 to 140 °C.

`C=CCOc1ccc(F)cc1-c1ccccc1-c1ccccc1` yielded a melting point of 48 to 49 °C.

Regarding `CC(C)Oc1ccc2c(c1)OCC1c3ccccc3OC21` (stereo unspecified), the melting point was 100 to 102 °C.

`CC(C)n1nc(-c2c(-c3ccccc3)nn3ccc(N4CCN(C(=O)c5ccccc5)CC4)cc23)ccc1=O`: the melting point was 124 to 126 °C.

Compound `O=C1NC(=O)C2(C=COc3c2ccc2ncccc32)N1` (stereo unspecified) gave a melting point of 330 °C.

Take `COc1ccccc1NC(=O)Nc1nc(N2CCCCC2)nc(N(CCC(=O)O)Cc2cccc(C)c2)n1`: the melting point fell in the range of 91 to 92 °C.

In the case of `C[C@@H](Cc1c2n(c3ccc(OC4CC4)cc13)CCC2)NC(=O)OC(C)(C)C`, the melting point is 83 to 84 °C.

In the case of `COC(=O)C1=C(C)NN=C(c2ccccc2)C1c1cccc(Cl)c1` (stereo unspecified), the melting point came out at 189 °C.

As for `COC(=O)c1cnc(N2CCN(Cc3ccccc3)CC2)nc1C`, the melting point fell in the range of 38 to 40 °C.

In turn, `Clc1cc(Cl)cc(NCNc2cc(Cl)cc(Cl)c2)c1` yielded a melting point of 153 to 156 °C.

As for `CS(=O)(=O)Nc1cccc(Nc2nc(NCC3CCCCN3)c3nc[nH]c3n2)c1` (stereo unspecified), the melting point lay in the range of 147 to 150 °C.

`CCN1CCOc2nc(Cl)c(Cl)nc21` came in with a melting point of 108 to 110 °C.

For the compound `COC(=O)c1ccc(OCC2CC(=O)N(c3ccc(OC(C)(C)C)cc3)C2)cc1` (stereo unspecified), the melting point was in the range of 126 to 128 °C.

Consider `O=C1CCC(O)(c2ccccc2Cc2ccccc2)CC1`, for which the melting point fell in the range of 138 to 140 °C.

Consider `O=C(CCC(=O)N1CCC(c2ccc(Cl)cc2)CC1)c1ccc2c(c1)CCN(C1CCCCC1)CC2`, for which the melting point fell in the range of 128 to 130 °C.

In turn, `CCCOc1c(OC)cc(C(=O)CCC(=O)c2cc(OC)c(OC)c(OC)c2)cc1SC` registered a melting point of 113 to 114 °C.

`O=C1NC(=O)C(Cc2ccc(OCCON=Cc3cccnc3)cc2)S1` (stereo unspecified) showed a melting point of 155 to 157 °C.

`CCOC(=O)CNc1cc(Cl)nc(Cl)n1` had a melting point of 89 to 91 °C.

Compound `CCOc1cc(C(C#N)N2C(=O)c3cccc(NC(C)=O)c3C2=O)ccc1OC` (stereo unspecified) yielded a melting point of 118 to 120 °C.

As to `CNC(=O)Oc1cccc(NC(=O)CC(C)(OC)OC)c1`, the melting point worked out at 139 °C.

`NC(=O)/C=C/C1=CC=CC(F)(C(F)(F)F)C1` (stereo unspecified) yielded a melting point of 121 to 122 °C.

The compound `CN(C)C(=O)C(C)(c1ccccc1)n1ccc(-c2ccccc2)n1` (stereo unspecified) displayed a melting point of 129 to 132 °C.

In the case of `CC(C)CN1C(=O)[C@@H](CC(=O)O)O[C@H](c2ccccc2OCc2ccccc2)c2cc(Cl)ccc21` (relative stereo), the melting point was 194 to 197 °C.

Regarding `COCn1cc(C(=O)c2ccccc2)c(-c2cccc(Cl)c2)n1`, the melting point lay in the range of 106 to 108 °C.

`CN1CN(C2CC2)c2ccc(C(N)=O)cc2S1(=O)=O` showed a melting point of 271 to 273 °C.

With `Cc1nc2c(CCc3ccccc3)cccn2c1CC#N`, the melting point lay in the range of 120 to 123 °C.

As for `COC(=O)c1ccc([N+](=O)[O-])c(OC(C)C)c1`, the melting point was in the range of 46 to 48 °C.

`CCOC(=O)NN(C(=O)NC)S(=O)(=O)c1ccccc1` yielded a melting point of 138 to 142 °C.

`Cc1nnc2n1-c1ccc([N+](=O)[O-])cc1C(c1ccccc1Cl)=NC2(C)C` showed a melting point of 283 °C.

`CCN(CC(=O)O)Cc1cc(/C(=N\O)c2cccc(Br)c2)ccc1[N+](=O)[O-]` registered a melting point of 131 °C.

Regarding `Cc1nc(C)n(-c2cc(C)c3[nH]c(=O)ccc3c2)c1[N+](=O)[O-]`, the melting point lay in the range of 244 to 247 °C.

Compound `O=C(C=Cc1ccc(CO)cc1)N1CCc2c([nH]c3ccccc23)C1c1ccc2c(c1)OCO2` (stereo unspecified) had a melting point of 206 °C.

Take `CON=C1CCCc2cc(C(=O)OC)c(C)nc21`: the melting point lay in the range of 124 to 125 °C.

In turn, `O=C(c1cccs1)c1cnn2c(-c3cccc(-c4ccn(Cc5ccccn5)n4)c3)ccnc12` had a melting point of 66 °C.

Compound `CCCC(C)(CCC)C(=O)O[C@H]1C[C@H](O)C=C2C=C[C@H](C)[C@H](CC[C@@H]3C[C@@H](O)CC(=O)O3)[C@H]21` yielded a melting point of 109 to 111 °C.

Regarding `CCOC(=O)c1c(C(F)(F)F)nc(C(F)(F)F)c(C(=O)OC)c1N=[N+]=[N-]`, the melting point is 46 to 47 °C.

In turn, `CC#CCOc1ccc(/C=C/C(=O)Nc2ccccc2C(=O)O)cc1OC` had a melting point of 194 to 195 °C.

For the compound `CCOC(C)OCC(O)CN1C(CO)=Cc2ccsc2S1(=O)=O` (stereo unspecified), the melting point lay in the range of 95 to 97 °C.

In the case of `O=C(O)Cc1c(-c2ccccc2)c(=O)[nH]c2cc(Cl)ccc12`, the melting point turned out to be 175 °C.

`CC(=O)Nc1ccc(C)c(C=O)n1` yielded a melting point of 202 °C.

The compound `Cc1ccc2c(c1O)NC(O)C1CCCN1C2=O` (stereo unspecified) yielded a melting point of 154 to 156 °C.
